Laboratory results: patent publication US11390629B2, “1,5-disubstituted 1,2,3-triazoles are inhibitors of Rac/Cdc42 GTPases” (UNIVERSITY OF PUERTO RICO, priority 2016, dated 2022)
Values joined by “and” are separate entries in the source; they are usually repeats but may differ in a detail not shown here. Equal entries are not always repeated. Where two headings read alike, the source gives them in different places.

Assays:
Rac and Cdc42 = conditions: cited from earlier work
Rac1 [1] = molecular target: T1, Rac1 (Homo sapiens, UniProt P63000); conditions: cited from earlier work
T1 construct: host or cells: MDA-MB-435

Rac1 [2] = molecular target: T1, Rac1; assay: Rac activity inhibition by EHop-016 (reported), MDA-MB-435 metastatic cells; assay type: cell-based
Cdc42 = Cdc42 (Homo sapiens, UniProt P60953); conditions: cited from earlier work
[3] = after oral and intraperitoneal (i.p.) administration; cited from earlier work
mammary tumor = conditions: cited from earlier work
MDA-MB-231 cells = assay: Cell viability assay (CellTiter 96 / MTT), MDA-MB-231; conditions: Homo sapiens, MDA-MB-231, read-out: GI50 (μM) MDA-MB-231
MDA-MB-231 = assay: Migration inhibition, MDA-MB-231 (Table 1B); assay type: cell-based; conditions: Homo sapiens
Rac = conditions: read-out: IC50 (effective concentrations); cited from earlier work

Cdc42, sequence (P60953 whole entry): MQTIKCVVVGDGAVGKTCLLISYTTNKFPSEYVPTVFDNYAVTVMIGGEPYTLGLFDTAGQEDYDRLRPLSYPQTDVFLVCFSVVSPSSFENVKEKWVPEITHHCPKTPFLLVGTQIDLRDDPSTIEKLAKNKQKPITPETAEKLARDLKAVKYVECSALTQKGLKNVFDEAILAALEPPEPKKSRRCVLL

## Cc1cc2cc(Nc3ccnc(Nc4ccc5[nH]c(C)cc5c4)n3)ccc2[nH]1 [Aza-1]
Rac and Cdc42
  effective concentration range: effective in the micromolar range

## COc1ccc(C2=NN(c3ccc(S(N)(=O)=O)cc3)C(c3ccccc3)C2)cc1 (centres unmarked) [CID2950007/ML141]
Rac and Cdc42
  effective concentration range: effective in the micromolar range

## CCn1c2ccccc2c2cc(Nc3ccnc(NCCCN4CCOCC4)n3)ccc21 [EHop-016]
Rac1 [1]; MDA-MB-435 metastatic cells, read-out: IC50 for Rac activity
  IC50: 1100 nM and ~1100 nM
Rac1 [1]
  concentrations inhibiting Rac1 activity: < 5 µM
Rac1 [1]; higher concentrations (>10 μM)
  inhibition of Rac activity: 100%
Rac1 [1]; read-out: IC50 (Rac inhibitor)
  IC50: 1100 nM
Rac1 [2]
  potency relative to NSC23766: ~100 ×
Cdc42
  concentrations inhibiting Cdc42 activity: ≥ 10 µM
Cdc42; higher concentrations (>10 μM)
  inhibition of Cdc42 activity: 75%
Cdc42; read-out: IC50 for Cdc42 inhibition
  IC50: ~8 µM
[3]
  average half-life: 4.5 h
  bioavailability: ~30%
Mammary tumor; 10 mg/kg BW
  reduction of tumor growth: ~40%
Mammary tumor; 25 mg/kg BW
  effect on mammary tumor growth, metastasis and angiogenesis: reduces mammary tumor growth, metastasis, and angiogenesis
  toxicity: without apparent toxicity

## CCn1c2ccccc2c2cc(-n3nncc3-c3cccc(C)c3)ccc21 [I-2, 9-ethyl-3-(5-(m-tolyl)-1H-1,2,3-triazol-1-yl)-9H-carbazole]
MDA-MB-231 cells
  GI50: 1.33 µM
MDA-MB-231
  inhibition at 1 µM: ≤ 1%

## CCn1c2ccccc2c2cc(-n3nncc3-c3cccc(OC)c3)ccc21 [I-3, 9-ethyl-3-(5-(3-methoxyphenyl)-1H-1,2,3-triazol-1-yl)-9H-carbazole]
MDA-MB-231 cells
  GI50: 0.248 µM
MDA-MB-231
  inhibition at 1 µM: ≤ 1%

## CCn1c2ccccc2c2cc(-n3nncc3-c3cccnc3)ccc21 [I-4, 9-ethyl-3-(5-(pyridin-3-yl)-1H-1,2,3-triazol-1-yl)-9H-carbazole]
MDA-MB-231 cells
  GI50: > 50 µM
MDA-MB-231
  inhibition at 10 µM: 65.1%

## CCn1c2ccccc2c2cc(-n3nncc3-c3ccsc3)ccc21 [I-5, 9-ethyl-3-(5-(thiophen-3-yl)-1H-1,2,3-triazol-1-yl)-9H-carbazole]
MDA-MB-231 cells
  GI50: 0.408 µM
MDA-MB-231
  inhibition at 1 µM: 2.4%

## CCn1c2ccccc2c2cc(-n3nncc3-c3ccccn3)ccc21 [I-6, 9-ethyl-3-(5-(pyridin-2-yl)-1H-1,2,3-triazol-1-yl)-9H-carbazole]
MDA-MB-231 cells
  GI50: > 50 µM
MDA-MB-231
  inhibition at 10 µM: 28%

## CCn1c2ccccc2c2cc(-n3nncc3-c3ccc(Oc4ccccc4)cc3)ccc21 [I-7]
MDA-MB-231 cells
  GI50: > 50 µM
MDA-MB-231
  inhibition at 10 µM: 30.8%

## CCn1c2ccccc2c2cc(-n3nncc3CCO)ccc21 [I-8, 2-(1-(9-ethyl-9H-carbazol-3-yl)-1H-1,2,3-triazol-5-yl)ethan-1-ol]
MDA-MB-231 cells
  GI50: > 50 µM

## CCN(CC)CCCC(C)Nc1nc(C)cc(Nc2ccc3nc(C)cc(N)c3c2)n1 (centres unmarked) [NSC23766]
Rac
  IC50: > 75 µM
